The values below come from US4450269A, “Mono-5-substituted-3-chloro-4H-1,2,6-thiadiazin-4-one antifungal agents” (FMC Corporation, priority 1980, dated 1984).

The subject of assay [1] is Pyricularia oryzae. Put plainly: whole plant or invertebrate. It is filed as in vivo. The settings on record: for Percent Disease Control, curative, rice blast: 150 ppm, 24 hours after inoculation; for pest or weed control at 150 ppm: Pyricularia oryzae, foliar, 24 h, read-out: Percent Disease Control, curative, rice blast, 150 ppm, 24 hours after inoculation.
For assay [2], the system named is Pyricularia oryzae. Briefly: microbe, parasite or virus in culture. It is filed as cell-based. The settings on record: for Percent Fungus Growth Inhibition: PO, 72 hours; for inhibition at 5 ppm / inhibition at 10 ppm / inhibition at 20 ppm / inhibition at 40 ppm: Pyricularia oryzae, 72 h; for inhibition at 5 ppm: read-out: Percent Fungus Growth Inhibition, PO, 5 ppm, 72 hours; for inhibition at 10 ppm: read-out: Percent Fungus Growth Inhibition, PO, 10 ppm, 72 hours; for inhibition at 20 ppm: read-out: Percent Fungus Growth Inhibition, PO, 20 ppm, 72 hours; for inhibition at 40 ppm: read-out: Percent Fungus Growth Inhibition, PO, 40 ppm, 72 hours.

Structures can show the parent of a compound that is named as a salt.

For “3-chloro-5-(bromophenoxy)-4H-1,2,6-thiadiazin-4-one [Compound 33]”, the “Percent Disease Control, curative, rice blast” value (from here on “Percent Disease Control”) with Pyricularia oryzae [1] stood at 0%. Moreover, the “Percent Fungus Growth Inhibition” value in the assay on Pyricularia oryzae [2] (5 ppm) is 53%; in the assay with Pyricularia oryzae [2] (10 ppm) it was 68%; in the assay with Pyricularia oryzae [2] (20 ppm), 100%; in the assay with Pyricularia oryzae [2] (40 ppm) it was 100%.

As for “3-chloro-5-[methylaminocarbonyloxy)phenoxyl]-4H-1,2,6-thiadiazin-4-one [Compound 36]”, the “Percent Disease Control” value with Pyricularia oryzae [1] is given as 95%. The “Percent Fungus Growth Inhibition” value in the assay with Pyricularia oryzae [2] (5 ppm) amounted to 31%; in the assay with Pyricularia oryzae [2] (10 ppm), 69%; in the assay with Pyricularia oryzae [2] (20 ppm) it was 100%; in the assay with Pyricularia oryzae [2] (40 ppm), 100%.

Broadly, the inhibition is the drop in the measured response relative to a control, in per cent. With `O=c1c(Cl)nsnc1Oc1ccccc1` [Compound 2, 3-chloro-5-phenoxy-4H--1,2,6-thiadiazin-4-one], in the assay on Pyricularia oryzae [1], the pest or weed control at 150 ppm amounted to 0%. In addition, in the assay with Pyricularia oryzae [2], the inhibition at 5 ppm is 22%, the inhibition at 10 ppm was determined as 26%, the inhibition at 20 ppm turned out to be 56% and the inhibition at 40 ppm is 100%.

Consider `Cc1ccc(Oc2nsnc(Cl)c2=O)cc1` [Compound 3, 3-chloro-5-(4-methylphenoxy)-4H--1,2,6-thiadiazin-4-one], for which the pest or weed control at 150 ppm with Pyricularia oryzae [1] came out at 0%. For the same compound, in the assay with Pyricularia oryzae [2], the inhibition at 5 ppm came out at 19%, the inhibition at 10 ppm was found to be 41%, the inhibition at 20 ppm was determined as 41% and the inhibition at 40 ppm is 93%.

`CC(C)(C)c1ccc(Oc2nsnc(Cl)c2=O)cc1` [Compound 4, 3-chloro-5-(4-tert-butylphnoxy)-4H--1,2,6-thiadiazin-4-one]: the pest or weed control at 150 ppm in the assay with Pyricularia oryzae [1] came out at 95%. In addition, in the assay on Pyricularia oryzae [2], the inhibition at 5 ppm stood at 0%, the inhibition at 10 ppm worked out at 0%, the inhibition at 20 ppm amounted to 0% and the inhibition at 40 ppm came to 19%.

With `COc1ccc(Oc2nsnc(Cl)c2=O)cc1` [Compound 5, 3-chloro-5-(4-methoxyphenoxy)4H--1,2,6-thiadiazin-4-one], the pest or weed control at 150 ppm in the assay with Pyricularia oryzae [1] was 75%. Besides, in the assay with Pyricularia oryzae [2], the inhibition at 5 ppm stood at 4%, the inhibition at 10 ppm amounted to 22%, the inhibition at 20 ppm was 48% and the inhibition at 40 ppm is 63%.

For `CCCCOc1ccc(Oc2nsnc(Cl)c2=O)cc1` [Compound 6, 3-chloro-5-(4-n-butoxyphenoxy)-4H--1,2,6-thiadiazin-4-one], in the assay with Pyricularia oryzae [1], the pest or weed control at 150 ppm amounted to 0%. Moreover, in the assay with Pyricularia oryzae [2], the inhibition at 5 ppm was 15%, the inhibition at 10 ppm came to 0%, the inhibition at 20 ppm came to 19% and the inhibition at 40 ppm turned out to be 19%.

For `CCOC(=O)c1ccc(Oc2nsnc(Cl)c2=O)cc1` [Compound 7, 3-chloro-5-(4-ethoxycarbonylphenoxy)-4H--1,2,6-thiadiazin-4-one], the pest or weed control at 150 ppm in the assay on Pyricularia oryzae [1] was found to be 0%. Besides, in the assay on Pyricularia oryzae [2], the inhibition at 5 ppm turned out to be 19%, the inhibition at 10 ppm worked out at 65%, the inhibition at 20 ppm amounted to 77% and the inhibition at 40 ppm is 81%.

For `CC(=O)Nc1ccc(Oc2nsnc(Cl)c2=O)cc1` [Compound 8, 5-(4-acetylaminophenoxy)-3-chloro-4H--1,2,6-thiadiazin-4-one], the pest or weed control at 150 ppm in the assay on Pyricularia oryzae [1] came to 0%. Also, in the assay with Pyricularia oryzae [2], the inhibition at 5 ppm turned out to be 23%, the inhibition at 10 ppm was determined as 0%, the inhibition at 20 ppm amounted to 48% and the inhibition at 40 ppm worked out at 74%.

In the case of `O=c1c(Cl)nsnc1Oc1ccc([N+](=O)[O-])cc1` [Compound 9, 3-chloro-5-(4-nitrophenoxy)-4H--1,2,6-thiadiazin-4-one], the pest or weed control at 150 ppm in the assay with Pyricularia oryzae [1] is 90%. In addition, in the assay on Pyricularia oryzae [2], the inhibition at 5 ppm was determined as 22%, the inhibition at 10 ppm is 48%, the inhibition at 20 ppm amounted to 70% and the inhibition at 40 ppm stood at 93%.

Take `N#Cc1ccc(Oc2nsnc(Cl)c2=O)cc1` [Compound 10, 3-chloro-5-(4-cyanophenoxy)-4H--1,2,6-thiadiazin-4-one]: the pest or weed control at 150 ppm in the assay on Pyricularia oryzae [1] was 0%. Further, in the assay with Pyricularia oryzae [2], the inhibition at 5 ppm turned out to be 19%, the inhibition at 10 ppm turned out to be 19%, the inhibition at 20 ppm worked out at 58% and the inhibition at 40 ppm was found to be 77%.

Consider `O=c1c(Cl)nsnc1Oc1ccc(F)cc1` [Compound 11, 3-chloro-5-(4-fluorophenoxy)-4H--1,2,6-thiadiazin-4-one], for which the pest or weed control at 150 ppm with Pyricularia oryzae [1] worked out at 0%. In the assay on Pyricularia oryzae [2], the inhibition at 5 ppm came to 15%, the inhibition at 10 ppm turned out to be 38%, the inhibition at 20 ppm was 54% and the inhibition at 40 ppm amounted to 62%.

Turning to `O=c1c(Cl)nsnc1Oc1ccc(Cl)cc1` [Compound 12, 3-chloro-5-(4-chlorophenoxy)-4H--1,2,6-thiadiazin-4-one], in the assay on Pyricularia oryzae [1], the pest or weed control at 150 ppm came out at 75%. In addition, in the assay with Pyricularia oryzae [2], the inhibition at 5 ppm amounted to 19%, the inhibition at 10 ppm stood at 30%, the inhibition at 20 ppm was found to be 59% and the inhibition at 40 ppm was determined as 85%.

On to `O=c1c(Cl)nsnc1Oc1cccc(Cl)c1` [Compound 13, 3-chloro-5-(3-chlorophenoxy)-4H--1,2,6-thiadiazin-4-one], for which the pest or weed control at 150 ppm with Pyricularia oryzae [1] is 0%. Further, in the assay on Pyricularia oryzae [2], the inhibition at 5 ppm amounted to 44%, the inhibition at 10 ppm came to 42%, the inhibition at 20 ppm was determined as 74% and the inhibition at 40 ppm amounted to 100%.

Regarding `O=c1c(Cl)nsnc1Oc1ccccc1Cl` [Compound 14, 3-chloro-5-(2-chlorophenoxy)-4H--1,2,6-thiadiazin-4-one], in the assay with Pyricularia oryzae [1], the pest or weed control at 150 ppm was 0%. Moreover, in the assay with Pyricularia oryzae [2], the inhibition at 5 ppm was found to be 23%, the inhibition at 10 ppm worked out at 26%, the inhibition at 20 ppm stood at 55% and the inhibition at 40 ppm came out at 100%.

In the case of `O=c1c(Cl)nsnc1Oc1ccc(Br)cc1` [Compound 15, 3-chloro-5-(4-bromophenoxy)-4H--1,2,6-thiadiazin-4-one], the pest or weed control at 150 ppm with Pyricularia oryzae [1] came out at 95%. Moreover, in the assay on Pyricularia oryzae [2], the inhibition at 5 ppm worked out at 12%, the inhibition at 10 ppm is 19%, the inhibition at 20 ppm came to 50% and the inhibition at 40 ppm came to 58%.

As to `O=c1c(Cl)nsnc1Oc1ccc(Cl)c(Cl)c1` [Compound 16, 3-chloro-5-(3,4-dichlorophenoxy)-4H--1,2,6-thiadiazin-4-one], the pest or weed control at 150 ppm in the assay on Pyricularia oryzae [1] was determined as 90%. Further, in the assay on Pyricularia oryzae [2], the inhibition at 5 ppm is 41%, the inhibition at 10 ppm was determined as 48%, the inhibition at 20 ppm is 48% and the inhibition at 40 ppm amounted to 41%.

For the compound `O=c1c(Cl)nsnc1Oc1ccc(Cl)cc1Cl` [Compound 17, 3-chloro-5-(2,4-dichlorophenoxy)-4H--1,2,6-thiadiazin-4-one], the pest or weed control at 150 ppm in the assay with Pyricularia oryzae [1] is 0%. Also, in the assay with Pyricularia oryzae [2], the inhibition at 5 ppm was determined as 29%, the inhibition at 10 ppm was found to be 48%, the inhibition at 20 ppm was 29% and the inhibition at 40 ppm was 71%.

In the case of `O=c1c(Cl)nsnc1Oc1c(Cl)cccc1Cl` [Compound 18, 3-chloro-5-(2,6-dichlorophenoxy)-4H--1,2,6-thiadiazin-4-one], the pest or weed control at 150 ppm in the assay with Pyricularia oryzae [1] was 0%. In addition, in the assay on Pyricularia oryzae [2], the inhibition at 5 ppm came to 26%, the inhibition at 10 ppm is 32%, the inhibition at 20 ppm was determined as 48% and the inhibition at 40 ppm turned out to be 48%.

On to `O=c1c(Cl)nsnc1Oc1cccc(Cl)c1Cl` [Compound 19, 3-chloro-5-(2,3-dichlorophenoxy)-4H--1,2,6-thiadiazin-4-one], for which the pest or weed control at 150 ppm in the assay on Pyricularia oryzae [1] came out at 0%. In the assay on Pyricularia oryzae [2], the inhibition at 5 ppm worked out at 39%, the inhibition at 10 ppm worked out at 48%, the inhibition at 20 ppm is 68% and the inhibition at 40 ppm is 87%.

Turning to `O=c1c(Cl)nsnc1Oc1cc(Cl)cc(Cl)c1` [Compound 20, 3-chloro-5-(3,5-dichlorophenoxy)-4H--1,2,6-thiadiazin-4-one], the pest or weed control at 150 ppm in the assay on Pyricularia oryzae [1] was found to be 0%. Further, in the assay with Pyricularia oryzae [2], the inhibition at 5 ppm was 48%, the inhibition at 10 ppm was determined as 74%, the inhibition at 20 ppm was 68% and the inhibition at 40 ppm was 74%.

Turning to `Cc1cccc(Oc2nsnc(Cl)c2=O)c1` [Compound 21, 3-chloro-5-(3-methylphenoxy)-4H--1,2,6-thiadiazin-4-one], in the assay with Pyricularia oryzae [1], the pest or weed control at 150 ppm was determined as 85%. Further, in the assay on Pyricularia oryzae [2], the inhibition at 5 ppm was 33%, the inhibition at 10 ppm turned out to be 33%, the inhibition at 20 ppm is 50% and the inhibition at 40 ppm turned out to be 58%.

Regarding `Cc1ccccc1Oc1nsnc(Cl)c1=O` [Compound 22, 3-chloro-5-(2-methylphenoxy)-4H--1,2,6-thiadiazin-4-one], the pest or weed control at 150 ppm in the assay on Pyricularia oryzae [1] was 0%. In the assay with Pyricularia oryzae [2], the inhibition at 5 ppm was 21%, the inhibition at 10 ppm turned out to be 33%, the inhibition at 20 ppm was 54% and the inhibition at 40 ppm worked out at 63%.

As for `Cc1ccc(Oc2nsnc(Cl)c2=O)c(C)c1` [Compound 23, 3-chloro-5-(2,4-dimethylphenoxy)-4H--1,2,6-thiadiazin-4-one], the pest or weed control at 150 ppm in the assay on Pyricularia oryzae [1] was 0%. Further, in the assay with Pyricularia oryzae [2], the inhibition at 5 ppm was 21%, the inhibition at 10 ppm is 42%, the inhibition at 20 ppm turned out to be 46% and the inhibition at 40 ppm is 58%.

On to `Cc1cccc(C)c1Oc1nsnc(Cl)c1=O` [Compound 24, 3-chloro-5-(2,6-dimethylphenoxy)-4H--1,2,6-thiadiazin-4-one], for which the pest or weed control at 150 ppm in the assay on Pyricularia oryzae [1] amounted to 95%. Also, in the assay with Pyricularia oryzae [2], the inhibition at 5 ppm came to 21%, the inhibition at 10 ppm was found to be 42%, the inhibition at 20 ppm stood at 63% and the inhibition at 40 ppm was 100%.

Turning to `Cc1cc(C)cc(Oc2nsnc(Cl)c2=O)c1` [Compound 25, 3-chloro-5-(3,5-dimethylphenoxy)-4H--1,2,6-thiadiazin-4-one], the pest or weed control at 150 ppm in the assay on Pyricularia oryzae [1] was 0%. In addition, in the assay with Pyricularia oryzae [2], the inhibition at 5 ppm was 33%, the inhibition at 10 ppm was 58%, the inhibition at 20 ppm is 54% and the inhibition at 40 ppm was found to be 63%.

With `Nc1ccc(Oc2nsnc(Cl)c2=O)cc1` [Compound 26, 5-(4-aminophenoxy)-3-chloro-4H--1,2,6-thiadiazin-4-one], the “Percent Disease Control” value with Pyricularia oryzae [1] is given as 0%. For the same compound, the “Percent Fungus Growth Inhibition” value in the assay with Pyricularia oryzae [2] (5 ppm) is listed as 0%; in the assay on Pyricularia oryzae [2] (10 ppm), 48%; with Pyricularia oryzae [2] (20 ppm), 90%. For the same compound, the inhibition at 40 ppm in the assay on Pyricularia oryzae [2] was 100%.

On to `Nc1ccc(Oc2nsnc(Cl)c2=O)cc1` [Compound 27, 5-(4-aminophenoxy)-3-chloro-4H--1,2,6-thiadiazine-4-one hydrochloride], for which, in the assay on Pyricularia oryzae [1] (hydrochloride), the “Percent Disease Control” value stood at 95%. Besides, the “Percent Fungus Growth Inhibition” value in the assay with Pyricularia oryzae [2] (5 ppm, hydrochloride) amounted to 24%; in the assay with Pyricularia oryzae [2] (10 ppm, hydrochloride), 24%; in the assay with Pyricularia oryzae [2] (20 ppm, hydrochloride), 0%; with Pyricularia oryzae [2] (40 ppm, hydrochloride), 81%.
